Test results taken from patent publication US20240376084A1, “INHIBITORS OF ALPHA-HEMOLYSIN OF STAPHYLOCOCCUS AUREUS” (Helmholtz-Zentrum Fur Infektionsforschung GmbH, priority 2021, published 2024).

Legend:
[1] = biological target: hemolysin alpha from Staphylococcus aureus (Staphylococcus aureus, UniProt P09616); experiment: cell-based
[2] = biological target: S. aureus Alpha hemolysin (Staphylococcus aureus, UniProt P09616); experiment: cell-based
Sequence of S. aureus Alpha hemolysin (P09616 27-319 limits assumed): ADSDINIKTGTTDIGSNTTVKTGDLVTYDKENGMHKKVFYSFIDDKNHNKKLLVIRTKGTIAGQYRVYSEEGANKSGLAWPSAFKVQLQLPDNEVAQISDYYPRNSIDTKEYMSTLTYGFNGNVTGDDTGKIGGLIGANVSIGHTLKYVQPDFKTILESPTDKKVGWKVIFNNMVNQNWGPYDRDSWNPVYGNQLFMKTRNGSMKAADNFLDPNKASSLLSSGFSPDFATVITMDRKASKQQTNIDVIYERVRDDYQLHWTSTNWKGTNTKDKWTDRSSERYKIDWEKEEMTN

Sequence of hemolysin alpha from Staphylococcus aureus (P09616 27-319 limits assumed): as above

SMILES	IC50 [1]	EC50 ([2]; A549-LDH Assay activity)	EC50 [1]	EC50 ([2]; LDH Assay EC50)
Cc1cc2[nH]c(=O)c(=O)[nH]c2cc1S(=O)(=O)Nc1ccc(-c2cncnc2)c(Cl)c1 [Compound 66, N-(3-chloro-4-(pyrimidin-5-yl)phenyl)-7-methyl-2,3-dioxo-1,2,3,4-tetrahydroquinoxaline-6-sulfonamide]	30 to 100 nM	100 to 1000 nM	–	–
Cc1cc2[nH]c(=O)c(=O)[nH]c2cc1S(=O)(=O)Nc1ccc(-c2cn(C)c3ccccc23)c(Cl)c1 [Compound 340, N-[3-chloro-4-(1-methylindol-3-yl)phenyl]-7-methyl-2,3-dioxo-1,4-dihydroquinoxaline-6-sulfonamide]	–	1000 to 6000 nM	100 to 1000 nM	–
CCOC(=O)c1ccccc1-c1ccc(NS(=O)(=O)c2cc3[nH]c(=O)c(=O)[nH]c3cc2C)cc1 [Compound 120, ethyl 4′-((7-methyl-2,3-dioxo-1,2,3,4-tetrahydroquinoxaline)-6-sulfonamido)-[1,1′-biphenyl]-2-carboxylate]	100 to 1000 nM	1000 to 6000 nM	–	–
Cc1cc2[nH]c(=O)c(=O)[nH]c2cc1S(=O)(=O)Nc1ccc(-c2ccc(S(C)(=O)=O)cc2)c(Cl)c1 [Compound 398, N-[3-chloro-4-(4-methylsulfonylphenyl)phenyl]-7-methyl-2,3-dioxo-1,4-dihydroquinoxaline-6-sulfonamide]	–	1000 to 6000 nM	1000 to 3500 nM	–
Cc1cc2[nH]c(=O)c(=O)[nH]c2cc1S(=O)(=O)Nc1ccc(-c2ccc(S(C)(=O)=O)cc2F)c(Cl)c1 [Compound 262, N-[3-chloro-4-(2-fluoro-4-methylsulfonyl-phenyl)phenyl]-7-methyl-2,3-dioxo-1,4-dihydroquinoxaline-6-sulfonamide]	–	1000 to 6000 nM	1000 to 3500 nM	–
Cc1cc(NS(=O)(=O)c2cc3[nH]c(=O)c(=O)[nH]c3cc2C)ccc1Br [drawing 471 (R^2 = CH3)]	–	–	267 nM	91 nM
Cc1cc2[nH]c(=O)c(=O)[nH]c2cc1S(=O)(=O)Nc1ccc(SC(F)(F)F)cc1 [Compound 396, 7-methyl-2,3-dioxo-N-[4-(trifluoromethylsulfanyl)phenyl]-1,4-dihydroquinoxaline-6-sulfonamide]	–	30 to 100 nM	100 to 1000 nM	–
Cc1ccc(-c2ccc(NS(=O)(=O)c3cc4[nH]c(=O)c(=O)[nH]c4cc3C)cc2Cl)cc1Cl [Compound 286, N-[3-chloro-4-(3-chloro-4-methyl-phenyl)phenyl]-7-methyl-2,3-dioxo-1,4-dihydroquinoxaline-6-sulfonamide]	–	100 to 1000 nM	30 to 100 nM	–
CCc1ccccc1-c1ccc(NS(=O)(=O)c2cc3[nH]c(=O)c(=O)[nH]c3cc2C)cc1 [Compound 113, N-(2′-ethyl-[1,1′-biphenyl]-4-yl)-7-methyl-2,3-dioxo-1,2,3,4-tetrahydroquinoxaline-6-sulfonamide]	100 to 1000 nM	100 to 1000 nM	–	–
COc1ccc(-c2ccc(NS(=O)(=O)c3cc4[nH]c(=O)c(=O)[nH]c4cc3C)cc2Cl)cc1 [Compound 246, N-[3-chloro-4-(4-methoxyphenyl)phenyl]-7-methyl-2,3-dioxo-1,4-dihydroquinoxaline-6-sulfonamide]	–	30 to 100 nM	< 30 nM	–
CC(C)c1cc2[nH]c(=O)c(=O)[nH]c2cc1S(=O)(=O)Nc1ccc(C(F)(F)F)cc1 [Compound 152, 7-isopropyl-2,3-dioxo-N-(4-(trifluoromethyl)phenyl)-1,2,3,4-tetrahydroquinoxaline-6-sulfonamide]	100 to 1000 nM	30 to 100 nM	–	–
Cc1cc2[nH]c(=O)c(=O)[nH]c2cc1S(=O)(=O)Nc1ccc(-c2ccccc2Cl)c(Cl)c1 [Compound 77, N-(2,2′-dichloro-[1,1′-biphenyl]-4-yl)-7-methyl-2,3-dioxo-1,2,3,4-tetrahydroquinoxaline-6-sulfonamide]	100 to 1000 nM	100 to 1000 nM	–	–
Cc1cc2[nH]c(=O)c(=O)[nH]c2cc1S(=O)(=O)Nc1ccc(-c2cc[nH]c(=O)c2)c(Cl)c1 [Compound 280, N-[3-chloro-4-(2-oxo-1H-pyridin-4-yl)phenyl]-7-methyl-2,3-dioxo-1,4-dihydroquinoxaline-6-sulfonamide]	–	100 to 1000 nM	1000 to 3500 nM	–
Cc1cc2[nH]c(=O)c(=O)[nH]c2cc1S(=O)(=O)Nc1ccc(-c2ccc3c(c2)CCN3C)c(Cl)c1 [Compound 341, N-[3-chloro-4-(1-methylindolin-5-yl)phenyl]-7-methyl-2,3-dioxo-1,4-dihydroquinoxaline-6-sulfonamide]	–	1000 to 6000 nM	100 to 1000 nM	–
Cc1cc2[nH]c(=O)c(=O)[nH]c2cc1S(=O)(=O)Nc1ccc(-c2ccn3ncnc3c2)c(Cl)c1 [Compound 337, N-[3-chloro-4-([1,2,4]triazolo[1,5-a]pyridin-7-yl)phenyl]-7-methyl-2,3-dioxo-1,4-dihydroquinoxaline-6-sulfonamide]	–	30 to 100 nM	30 to 100 nM	–
Cc1cc2[nH]c(=O)c(=O)[nH]c2cc1S(=O)(=O)Nc1ccc(-c2cccc(O)c2)c(C(F)(F)F)c1 [Compound 366, N-[4-(3-hydroxyphenyl)-3-(trifluoromethyl)phenyl]-7-methyl-2,3-dioxo-1,4-dihydroquinoxaline-6-sulfonamide]	–	30 to 100 nM	< 30 nM	–

SMILES	IC50 [1]	EC50 ([2]; A549-LDH Assay activity)	EC50 [1]	EC50 ([2]; LDH Assay EC50)
Cc1cc2[nH]c(=O)c(=O)[nH]c2cc1S(=O)(=O)Nc1ccc(-c2ccc3c(C)c[nH]c3c2)c(Cl)c1 [Compound 352, N-[3-chloro-4-(3-methyl-1H-indol-6-yl)phenyl]-7-methyl-2,3-dioxo-1,4-dihydroquinoxaline-6-sulfonamide]	–	100 to 1000 nM	100 to 1000 nM	–
Cc1cc2[nH]c(=O)c(=O)[nH]c2cc1S(=O)(=O)Nc1ccc(-c2ccc3c(c2)OCCN3C)c(Cl)c1 [Compound 329, N-[3-chloro-4-(4-methyl-2,3-dihydro-1,4-benzoxazin-7-yl)phenyl]-7-methyl-2,3-dioxo-1,4-dihydroquinoxaline-6-sulfonamide]	–	1000 to 6000 nM	100 to 1000 nM	–
COc1ccc(-c2ccc(NS(=O)(=O)c3cc4[nH]c(=O)c(=O)[nH]c4cc3C)cc2Cl)c(F)c1 [Compound 261, N-[3-chloro-4-(2-fluoro-4-methoxy-phenyl)phenyl]-7-methyl-2,3-dioxo-1,4-dihydroquinoxaline-6-sulfonamide]	–	30 to 100 nM	< 30 nM	–
Cc1cc2[nH]c(=O)c(=O)[nH]c2cc1S(=O)(=O)Nc1ccc(-c2ccc(C#N)cc2)c(C(F)(F)F)c1 [Compound 348, N-[4-(4-cyanophenyl)-3-(trifluoromethyl)phenyl]-7-methyl-2,3-dioxo-1,4-dihydroquinoxaline-6-sulfonamide]	–	100 to 1000 nM	< 30 nM	–
Cc1cc2[nH]c(=O)c(=O)[nH]c2cc1S(=O)(=O)Nc1ccc(-c2ccc(F)c(F)c2F)c(Cl)c1 [Compound 307, N-[3-chloro-4-(2,3,4-trifluorophenyl)phenyl]-7-methyl-2,3-dioxo-1,4-dihydroquinoxaline-6-sulfonamide]	–	30 to 100 nM	30 to 100 nM	–
Cc1cc(NS(=O)(=O)c2cc3[nH]c(=O)c(=O)[nH]c3cc2F)ccc1-c1ccoc1 [Compound 168, 7-fluoro-N-(4-(furan-3-yl)-3-methylphenyl)-2,3-dioxo-1,2,3,4-tetrahydroquinoxaline-6-sulfonamide]	100 to 1000 nM	1000 to 6000 nM	–	–
Cc1cc2[nH]c(=O)c(=O)[nH]c2cc1S(=O)(=O)Nc1ccc(-c2ccc(Cl)cc2)c(Cl)c1 [Compound 8, N-(2,4′-dichloro-[1,1′-biphenyl]-4-yl)-7-methyl-2,3-dioxo-1,2,3,4-tetrahydroquinoxaline-6-sulfonamide]	< 30 nM	100 to 1000 nM	–	–
Cc1cc2[nH]c(=O)c(=O)[nH]c2cc1S(=O)(=O)Nc1ccc(C2CCCCC2)c(Br)c1 [Compound 306, N-(3-bromo-4-cyclohexylphenyl)-7-methyl-2,3-dioxo-1,2,3,4-tetrahydroquinoxaline-6-sulfonamide]	–	100 to 1000 nM	30 to 100 nM	–
Cc1cc2[nH]c(=O)c(=O)[nH]c2cc1S(=O)(=O)Nc1cc(C)c(-c2ccsc2)c(C)c1 [Compound 42, N-(3,5-dimethyl-4-(thiophen-3-yl)phenyl)-7-methyl-2,3-dioxo-1,2,3,4-tetrahydroquinoxaline-6-sulfonamide]	30 to 100 nM	100 to 1000 nM	–	–
C#Cc1cc(NS(=O)(=O)c2cc3[nH]c(=O)c(=O)[nH]c3cc2C)ccc1-c1ccc(OC)c(F)c1 [Compound 300, N-[3-ethynyl-4-(3-fluoro-4-methoxy-phenyl)phenyl]-7-methyl-2,3-dioxo-1,4-dihydroquinoxaline-6-sulfonamide]	–	< 30 nM	< 30 nM	–
O=c1[nH]c2cc(Cl)c(S(=O)(=O)Nc3ccc(Br)c(Cl)c3)cc2[nH]c1=O [Compound 144, N-(4-bromo-3-chlorophenyl)-7-chloro-2,3-dioxo-1,2,3,4-tetrahydroquinoxaline-6-sulfonamide]	100 to 1000 nM	1000 to 6000 nM	–	–
Cc1cc2[nH]c(=O)c(=O)[nH]c2cc1S(=O)(=O)Nc1ccc(-c2cccc(N3CCCC3)c2)c(Cl)c1 [Compound 6, N-(2-chloro-3′-(pyrrolidin-1-yl)-[1,1′-biphenyl]-4-yl)-7-methyl-2,3-dioxo-1,2,3,4-tetrahydroquinoxaline-6-sulfonamide]	< 30 nM	100 to 1000 nM	–	–
C#Cc1ccc(-c2ccc(NS(=O)(=O)c3cc4[nH]c(=O)c(=O)[nH]c4cc3C)cc2C#C)cc1 [Compound 251, N-(2,4′-diethynyl-[1,1′-biphenyl]-4-yl)-7-methyl-2,3-dioxo-1,2,3,4-tetrahydroquinoxaline-6-sulfonamide]	–	< 30 nM	< 30 nM	–
O=c1[nH]c2cc(Br)c(S(=O)(=O)Nc3ccc(OC(F)(F)F)cc3)cc2[nH]c1=O [Compound 15, 7-bromo-2,3-dioxo-N-(4-(trifluoromethoxy)phenyl)-1,2,3,4-tetrahydroquinoxaline-6-sulfonamide]	< 30 nM	30 to 100 nM	–	–
O=c1[nH]c2cc(Cl)c(S(=O)(=O)Nc3ccc(-c4ccc5c(c4)NCC5)c(Cl)c3)cc2[nH]c1=O [Compound 46, 7-chloro-N-(3-chloro-4-(indolin-6-yl)phenyl)-2,3-dioxo-1,2,3,4-tetrahydroquinoxaline-6-sulfonamide]	30 to 100 nM	100 to 1000 nM	–	–
